Data as given in patent US8071117B2, “Pheromones” (East Malling Research Limited, priority 2004, dated 2011).
“Also recorded” adds a separate entry of the source.

Assays:
[1] = Rate of release of pheromone components from lures in laboratory wind tunnel; assay type: physicochemical; details: for Mean release rate: 27° C., 8 km/hr wind speed; for Mean ratio (release rate to the major component): major component = 100
Procedure: Measurements were made of the rates of release of the components from lures maintained in a laboratory wind tunnel at 27° C. and 8 km/hr wind speed. Volatiles were collected onto Porapak Q under same conditions for approximately 2 hours and the collections were analysed by Gas Chromatography with a flame ionisation detector using a polar column.
Release rates (ng/hr) and their ratios to the major component are shown.

[2] = test system: male midge EAG preparation (raspberry cane midge); test: GC-EAG analysis with male midge EAG preparation; set-up: species or system Resseliella theobaldi; details: volatiles from female midges, polar GC column
Procedure: GC-EAG analyses were carried out with a […] GC (Agilent) fitted with capillary GC columns ([…]×0.32 mm i.d.) coated with polar (Wax10; Supelco) and non-polar (SPB 1; Supelco) phases. Injection was splitless (220° C.) and detection was by FID (250°). The oven temperature was programmed from 50° C. for 2 min, then at 10° C./min to 250° C. The GC column effluent was split (1:1) between the FID and a silanised glass T-piece in the column oven. Nitrogen (500 ml/min) was blown continuously over the EAG preparation and every 17 sec this was diverted through the T-piece for 3 sec, blowing the contents over the EAG preparation, as described by Cork et al. (1991).
Following experience working with other midge species, the EAG preparation was set up by suspending the whole insect between glass electrodes containing electrolyte (0.1 M potassium chloride with 10% polyvinylpyrrolidone added to reduce evaporation). The ends of both antennae were inserted into the recording electrode and the body into the reference electrode. The electrodes were inserted into silver/silver chloride electrodes held in micromanipulators on the portable EAG device developed by Syntech (INR-02; Syntech, Hilversum, The Netherlands).
Major female-specific component is at 14.24 min; 2-undecanone at 9.07 min, 2-acetoxyundecane at 9.77 min and 2-undecanol at 10.45 min. EAG signals at 13.2 min and 14.9 min are probably interference spikes.

[3] = test system: male raspberry cane midges; test: Field studies: sticky traps baited with rubber septum or polythene vial lures in raspberry plantations; assay type: in vivo, Resseliella theobaldi; details: for Mean total number males captured per trap (n): Log10(n + 1) / Mean total number males captured per trap (n): n: 11 May-7 Jun 2005, 10 plantations; for attractiveness to raspberry cane midge males (in words): field tests
Source text: • A) Sticky traps baited with a rubber septum or polythene vial lure containing 100 microgrammes of racemic 2-acetoxy-5-undecanone were deployed in ten raspberry plantations at Belks farm, Otham, Kent, Beech Farm, West Peckham Kent and East Malling Research between 11 May and 31 May 2005. An average of 153 male raspberry cane midges were caught, per trap, compared to an average of 1 in similar traps not baited with a lure. […] Sticky traps baited with a rubber septa or polythene vial lure containing 100 micrograms of racemic 2-acetoxy-5-undecanone alone or in admixture with 30 micrograms of racemic 2-undecanol, 30 micrograms of undecanone and 30 micrograms of racemic 2-undecyl acetate were deployed in ten raspberry plantations, 4 at Belks farm, Otham, Kent, 4 at Beech Farm, West Peckham Kent and 2 at East Malling Research, Kent between 11 May and 7 Jun. 2005 in a randomised complete block experimental design with the 10 different plantations as blocks.
The baited traps caught an average of 201 male raspberry cane midges per trap compared to an average of 1 in similar traps not baited with a lure.

[4] = test system: male apple leaf midges; test: Field studies: sticky delta traps baited with synthetic lures in apple orchards; assay type: in vivo, Dasineura mali; details: for males caught: 19-27 May 2004; for attractiveness to male apple leaf midges (in words): in vivo; for average male midges caught: 5 replicate traps, 7 May-20 May 2004, East Malling; for average male apple leaf midges caught: 24-27 May 2004
Source text: A) Sticky delta traps baited with the synthetic lures impregnated with racemic (Z)-13-acetoxy-8-heptadecen-2-one were deployed in apple orchards. Large numbers of male apple leaf midges were caught in traps baited with the compound dispensed into the atmosphere from rubber septa.

| Structure (SMILES) | Mean release rate ([1]; Interval 3 days, Septa) [ng/h] | Mean ratio (release rate to the major component) ([1]; Interval 3 days, Septa) | Mean release rate ([1]; Interval 3 days, Vial) [ng/h] | Mean ratio (release rate to the major component) ([1]; Interval 3 days, Vial) | Mean release rate ([1]; Interval 5 days, Vial) [ng/h] | Mean ratio (release rate to the major component) ([1]; Interval 5 days, Vial) | Mean release rate ([1]; Interval 11 days, Septa) [ng/h] | Mean ratio (release rate to the major component) ([1]; Interval 11 days, Septa) | Mean release rate ([1]; Interval 11 days, Vial) [ng/h] | Mean ratio (release rate to the major component) ([1]; Interval 11 days, Vial) | Mean release rate ([1]; Interval 25 days, Vial) [ng/h] | Mean ratio (release rate to the major component) ([1]; Interval 25 days, Vial) | Mean release rate ([1]; Interval 26 days, Septa) [ng/h] | Mean ratio (release rate to the major component) ([1]; Interval 26 days, Septa) | EAG response [2] | other results |
| --- | --- | --- | --- | --- | --- | --- | --- | --- | --- | --- | --- | --- | --- | --- | --- | --- |
| CCCCCCCCCC(C)O (racemic) [2-undecanol] | 20.2 | 25 | 19.5 | 52 | 21.1 | 45 | 27.4 | 81 | 29.4 | 36 | 17.4 | 25 | 7.4 | 25 | probably responses |  |
| CCCCCCCCCC(C)OC(C)=O (racemic) [2-undecyl acetate, 2-acetoxyundecane] | 30.8 | 38 | 23.8 | 64 | 20.6 | 44 | 14.5 | 43 | 31.7 | 39 | 21.8 | 31 | 8.9 | 30 | probably responses |  |
| CCCCCCC(=O)CCC(C)OC(C)=O (racemic) [racemic 2-acetoxy-5-undecanone, 2-acetoxy-5-undecanone] | 81.8 | 100 | 37.1 | 100 | 47.0 | 100 | 33.8 | 100 | 81.8 | 100 | 69.8 | 100 | 29.5 | 100 |  | average male raspberry cane midges caught per trap ([3]; 100 microgrammes lure, rubber septum or polythene vial, ten plantations, 11 May-31 May 2005): 153; Mean total number males captured per trap (n): Log10(n + 1) ([3]; Dispenser Septa): 1.969; Mean total number males captured per trap (n): n ([3]; Dispenser Septa): 218; Mean total number males captured per trap (n): Log10(n + 1) ([3]; Dispenser Vial): 2.042; Mean total number males captured per trap (n): n ([3]; Dispenser Vial): 230; attractiveness to raspberry cane midge males (in words) [3]: highly attractive; also recorded: attracted a significant number; attractiveness to raspberry cane midge males (in words) ([3]; listed as 2-acetoxy-5-undecanone): work exceptionally well |
| CCCCC(CCC/C=C\CCCCCC(C)=O)OC(C)=O (racemic) [racemic (Z)-13-acetoxy-8-heptadecen-2-one, (Z)-13-acetoxy-8-heptadecen-2-one] |  |  |  |  |  |  |  |  |  |  |  |  |  |  |  | distance at which lures attract significant numbers of males ([4]; 100 micrograms lure): at least 50 m; males caught ([4]; 100 micrograms lure, 10 m from isolated infested orchard): 563; males caught ([4]; 100 micrograms lure, 20 m from isolated infested orchard): 348; males caught ([4]; 100 micrograms lure, 30 m from isolated infested orchard): 148; males caught ([4]; 100 micrograms lure, 40 m from isolated infested orchard): 266; males caught ([4]; 100 micrograms lure, 50 m from isolated infested orchard): 103; attractiveness to male apple leaf midges (in words) [4]: Large numbers; attractiveness to male apple leaf midges (in words) ([4]; listed as 13-acetoxy-8-heptadecen-2-one): strongly attractive effect; attractiveness to male apple leaf midges (in words) ([4]; listed as (Z)-13-acetoxy-8-heptadecen-2-one): racemic mixtures work exceptionally well; apple leaf midges attracted to a trap ([4]; one test, in one day, released at approximately 1 ng/hr): 1,600; average male midges caught ([4]; rubber septa 10 micrograms): 1201; average male midges caught ([4]; rubber septa 100 micrograms): 4037; average male apple leaf midges caught ([4]; rubber septum lure 1 microgram): 12; average male apple leaf midges caught ([4]; rubber septum lure 3 microgram): 97; average male apple leaf midges caught ([4]; rubber septum lure 10 microgram): 273 |
| CCCCCCC(=O)CCC(C)OC(C)=O (single isomer, unassigned) [major female-specific component, 2-acetoxy-5-undecanone] |  |  |  |  |  |  |  |  |  |  |  |  |  |  | EAG response was always observed |  |
| CCCCCCCCCC(C)=O [2-undecanone] | 21.6 | 26 | 41.2 | 111 | 39.4 | 84 | 14.3 | 42 | 39.6 | 48 | 21.6 | 31 | 9.9 | 34 |  |  |
